Test results: paper PMC10673563, “In Vitro and In Vivo Biological Evaluation of Indole-thiazolidine-2,4-dione Derivatives as Tyrosinase Inhibitors” (Molecules, 2023)

Key:
[1] = biological target: T1, Mushroom tyrosinase (Agaricus bisporus, UniProt C7FF04); assay: Tyrosinase inhibitory activity assay (L-DOPA, absorbance 475 nm); assay type: biochemical
T1 construct: purchased Sigma-Aldrich (Shanghai, China)
Experimental: The tyrosinase inhibitory activities of compounds 5a~5z were determined according to previous reports. In brief, 10 μL of compound was added into 140 μL of tyrosinase, incubated for 5 min at room temperature. Then, 50 μL of L-DOPA was added, followed by the measurement of absorbance change at 475 nm. The inhibition rate at different concentrations was calculated and compared to the blank control.

[2] = biological target: T2, tyrosinase (Agaricus bisporus, UniProt C7FF04); assay: Inhibition kinetics (Lineweaver–Burk plots); assay type: biochemical, mushroom
T2 construct: purchased Sigma-Aldrich (Shanghai, China)
Experimental: To understand the inhibition mechanism of this kind of compound on tyrosinase, the inhibition kinetics of the preferable compound 5w were investigated. […] With the increasing concentrations of 5w, the Y-intercept of corresponding lines increased and the X-intercept decreased, meaning the decrease of Vmax and Km.
The kinetics studies of 5w were conducted using the above experimental procedure. The absorbance changes in the mixture containing 5w (0, 4, 8, and 16 μM), tyrosinase (66.7 U/mL), and L-DOPA (2, 4, 6, and 8 mM) were recorded, respectively. The data were analyzed using Lineweaver–Burk plots.
Target sequence in this assay (C7FF04 1-392 limits assumed): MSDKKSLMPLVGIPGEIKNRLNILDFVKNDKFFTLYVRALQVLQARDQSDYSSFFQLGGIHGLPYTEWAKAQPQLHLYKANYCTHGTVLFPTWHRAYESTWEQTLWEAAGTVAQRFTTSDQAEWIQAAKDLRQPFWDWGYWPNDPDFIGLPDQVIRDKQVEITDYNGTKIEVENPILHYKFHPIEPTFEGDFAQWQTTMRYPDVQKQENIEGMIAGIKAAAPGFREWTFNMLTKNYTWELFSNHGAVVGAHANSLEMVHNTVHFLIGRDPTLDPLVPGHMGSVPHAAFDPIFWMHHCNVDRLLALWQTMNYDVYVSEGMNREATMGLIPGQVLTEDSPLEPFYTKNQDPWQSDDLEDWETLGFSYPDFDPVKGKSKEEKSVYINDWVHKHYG

[3] = biological target: T2, tyrosinase; assay: Fluorescence quenching titration (Stern–Volmer); assay type: binding, mushroom
Experimental: Fluorescence quenching, an effective method for monitoring the binding of a compound to its target protein, was operated to examine the binding of compound 5w with tyrosinase.
For a further understanding of the binding process of compound 5w with tyrosinase, the fluorescence quenching manner was assayed using the Stern–Volmer equation. In the Stern–Volmer plots of compound 5w (Figure 3D), the lines at different temperatures presented a good linear, which illustrated only one quenching manner in their binding process. Although the quenching constant (Ksv) values were slightly proportional to temperature, the quench rate constant (Kq) values at different temperatures were all higher than 2 × 10^10 L mol^−1 S^−1, which is the maximum scattering collision quenching constant (Table 2). […] In addition, the number of binding sites (n) was obtained to be about one, meaning there was only one binding site between compound 5w and tyrosinase (Table 2).
According to a previous report, the fluorescence quenching titration was run. In total, 1 μL of 5w solution was progressively titrated into 2 mL of tyrosinase (0.17 mg/mL), followed by fluorescence spectra determination (λex = 280 nm) at temperatures of 298, 303, and 308 K, respectively. The quenching parameters were obtained using the Stern–Volmer equation.
Target sequence in this assay (C7FF04 1-392 limits assumed): as above

[4] = biological target: T2, tyrosinase; assay: CD spectra, secondary structure content of tyrosinase; set-up: species or system mushroom
Experimental: CD spectra, one widely used method for determining the secondary structure of protein, were applied to assay the effects of 5w on the conformation change of tyrosinase. The CD spectra of the tyrosinase–compound 5w mixture were monitored and two negative characteristic bands around 210 and 222 nm appeared (Figure 4), which represented typical features of α-helixes.
The CD spectra of tyrosinase (33 μM) and tyrosinase–compound 5w mixture were measured at room temperature, respectively, based on previous reports. The test wavelengths were 195~250 nm.
Target sequence in this assay (C7FF04 1-392): as the sequence (C7FF04 1-392 limits assumed) above

[5] = biological target: T2, tyrosinase; assay: Three-dimensional fluorescence spectra; set-up: species or system mushroom; details: 5w 8.5 μM
Experimental: Three-dimensional fluorescence spectra were employed to monitor the effects of compound 5w on the conformation and microenvironment changes in tyrosinase. In the 3D fluorescence spectra of tyrosinase (Figure 5A), two characteristic peaks 1 and 2 appeared, which corresponded to Tyr and Trp residues and polypeptide strand transition, respectively.
Based on a previous report, the 3D fluorescence spectra of tyrosinase (0.17 mg/mL) and tyrosinase–compound 5w mixture were measured, respectively, at room temperature. The test wavelengths were 200–400 nm.
Target sequence in this assay (C7FF04 1-392 limits assumed): as above

[6] = test system: B16F10 cells; assay: Cell cytotoxicity (MTT); assay type: cell-based; details: 4~32 μM, 48 h
Experimental: The effects of compound 5w and kojic acid on the cells’ viability were determined using the MTT method. B16F10 cells (5000 cells/well) were seeded into the 96-well plate for 24 h, followed by the treatment of compound 5w or kojic acid (4~32 μM) for another 48 h. Then, MTT solution (0.5 mg/mL) was added and incubated for 4 h. DMSO (100 μL) was used to dissolve the violet precipitates, and then the mixture was measured for its absorbance at 570 nm.

[7] = test system: tyrosinase activity in B16F10 cells; assay: Tyrosinase activity in B16F10 cells; assay type: cell-based; details: 16 and 32 μM
Experimental: The tyrosinase inhibitory activity of 5w in B16F10 cells was determined. B16F10 cells (1 × 10^5 cells/well) were seeded into the 6-well plate for 24 h and subsequently treated with compound 5w or kojic acid for another 48 h. Then, the harvested cells were suspended into the appropriate amount of Triton X-100 (1%) and frozen for 1 h at −80 °C. After it had thawed, the mixture was centrifuged to collect the supernatant. Then, its protein concentration was determined using a BCA Kit. After 20 μL of L-DOPA (10 mM) was added into 80 μL of protein solution, the absorbance change at 475 nm was measured.

[8] = test system: melanogenesis in B16F10 cells; assay: Melanin content in B16F10 cells; assay type: cell-based; details: 16 and 32 μM
Experimental: B16F10 cell treatment was consistent with the above method. The harvested cells were suspended into NaOH (1 M, 200 μL). After boiling for 1 h, the mixture was measured to determine the absorbance change at wavelength of 405 nm.

[9] = test system: tyrosinase activity in zebrafish; assay: Tyrosinase activity in zebrafish; assay type: in vivo
Experimental: The embryos treated with compound 5w or kojic acid were lysed in PBS, followed by centrifugation to obtain the supernatant. The appropriate amount of supernatant, equal L-DOPA (5 mg/mL), was added and the absorbance at 475 nm was determined.

[10] = test system: melanogenesis in zebrafish; assay: Melanin content in zebrafish (microscope, Image J); assay type: in vivo
Experimental: The embryos treated with compound 5w or kojic acid were observed under a microscope and the melanin content was assayed using Image J software.

T1 sequence (C7FF04 1-392): as the sequence (C7FF04 1-392 limits assumed) above

## N#Cc1cccc(/C=C2\SC(=O)N(CC(=O)NCCc3c[nH]c4ccccc34)C2=O)c1 [5w]
[1]
  IC50: 11.2 µM
[1]; initial concentration of 32 μM
  inhibition at 32 µM: > 70%
[2]; Lineweaver–Burk plots
  inhibition type: mixed-type tyrosinase inhibitor
[2]; from plots of slope vs. inhibitor concentration, read-out: inhibition constant (Ki)
  Ki: 11.7 µM
[3]
  fluorescence quenching process: static quenching process
[3]; T 298 K
  KSV: 3.77 ×10^4 Lmol^−1
  Kq: 3.77 ×10^12 Lmol^−1
  n (number of binding sites): 0.72
[3]; T 303 K
  KSV: 3.84 ×10^4 Lmol^−1
  Kq: 3.84 ×10^12 Lmol^−1
  n (number of binding sites): 0.74
[3]; T 308 K
  KSV: 4.47 ×10^4 Lmol^−1
  Kq: 4.47 ×10^12 Lmol^−1
  n (number of binding sites): 0.82
[3]; at different temperatures (298, 303, 308 K)
  quench rate constant (Kq): higher than 2 × 10^10 L mol^−1 S^−1
[4]; [Enzyme]: [5w] 1: 1
  Random Coil (%): 32.5%
  α-Helix (%): 8.8%
  β-Sheet (%): 33.6%
  β-Turn (%): 19.9%
[4]; [Enzyme]: [5w] 1: 2
  Random Coil (%): 34.5%
  α-Helix (%): 8.9%
  β-Sheet (%): 33.1%
  β-Turn (%): 20.0%
[4]; [Enzyme]: [5w] 1: 3
  Random Coil (%): 35.5%
  α-Helix (%): 9.0%
  β-Sheet (%): 32.7%
  β-Turn (%): 20.1%
[5]
  3D fluorescence characteristic peaks 1 and 2 of tyrosinase: reduced significantly accompanied by a slight shift
[6]
  effect on cells' viability: obvious effects
[7]
  cellular anti-tyrosinase activity compared with kojic acid: obvious higher
[7]; 48 h
  cellular tyrosinase activity: could inhibit
[8]
  anti-melanogenesis activity compared with kojic acid: obvious higher
[8]; 48 h
  melanogenesis in B16F10 cells: could inhibit
[9]; concentration of 10 μM
  anti-tyrosinase activity in zebrafish compared with kojic acid: higher anti-tyrosinase activity than kojic acid
[9]; zebrafish embryos
  tyrosinase activity in zebrafish: could reduce the tyrosinase activity in zebrafish
[10]; Image J
  decrease in grayscale values compared with kojic acid: displayed a higher decrease
[10]; Image J, compared to control embryo
  grayscale values of whole embryos: decrease in grayscale values
[10]; embryo photos, compared to control embryo
  pigmentation of embryo (eyes, yolk sac, notum): pigmentation decrease
